Columns and labels:
Format in all cases: in vivo, human
[1] = system: group of experts; experiment: Sensory evaluation of Balansin A and Balansin B by a group of experts; settings: 50 ppm in water and in a 5 wt % aqueous saccharose solution; Balansin A described in the aqueous solution
Description: A group of experts tasted and sensorily evaluated the two isolated compounds Balansin A and Balansin B from Example 4, each at a concentration of 50 ppm in water and a 5 wt % aqueous saccharose solution.

[2] = system: group of at least five persons; experiment: Intrinsic sweetness against a saccharose reference series (saccharose equivalents); settings: 50 ppm, against saccharose reference series in water
Description: To determine the sweet impression of the extracts according to the invention or of the compounds according to the invention of the formula (I) compared to an aqueous saccharose solution, an aqueous solution of one or a plurality of compounds of the formula (I) is produced in the same concentration as is present in the orally consumable formulation under study. This aqueous solution is then compared and rated for taste by a group of at least five persons against a reference series of different saccharose concentrations in water. In this way, the saccharose equivalence is determined (indicated in saccharose equivalents), in other words, the concentration of the saccharose solution, whose sweet impression is equivalent to the sweet impression of the concentration of compounds of the formula (I). Preferred concentrations of the saccharose reference solution are 0; 0.25; 0.5; 0.75; 1; 1.5; 2; 3; 4 and 5 wt % saccharose in water. If necessary, other concentrations, particularly higher concentrations, can also be used for the reference series. The ascertained saccharose equivalent is obtained from the mean value of the individual rating of the individual panelists. The panelists are preferably persons who have experience in the field of tasting, are of different age and gender and come from different backgrounds. […]

[3] = system: group of experts; experiment: Reinforcing the sweet impression of a 5 wt % saccharose solution; settings: for % Reinforcement of the sweet impression: versus saccharose solution alone; for Sweet impression (1-10) with: rating 1 [not sweet] to 10 [extremely sweet]
Procedure: In order to quantify the reinforcement of the sweet impression, the sweetness of a 5 wt %-containing saccharose solution and of a sample which contained 5 wt % saccharose and a quantity of the test substance or test extract was determined by a group of experts (rating 1 [not sweet] to 10 [extremely sweet]). The analysis was performed as a calculation of the […] (in %) of the sweet impression from the average values of the assessments of the saccharose solution and of the solution containing saccharose and Compound 2 (p was determined as a significance measure according to the paired, two-tailed Student's statistical test).

[4] = 25 ppm in 5 wt % saccharose solution
[5] = 50 ppm in 5 wt % saccharose solution

Row | SMILES | Sensory evaluation (taste description) [1] | Intrinsic sweetness, equivalent to the sweetness of saccharose [2] [% saccharose] | % Reinforcement of the sweet impression [3, 4] | Sweet impression (1-10) with [3, 4] | % Reinforcement of the sweet impression [3, 5] | Sweet impression (1-10) with [3, 5]
1 | CC(C)(O)C(O)C/C=C(\CO)[C@H]1CC[C@]2(C)[C@@H]1CC[C@@H]1[C@@]3(C)CC[C@H](O[C@@H]4O[C@H](CO)[C@@H](O)[C@H](O)[C@H]4OC4O[C@H](CO)[C@@H](O)[C@H](O)[C@H]4O)C(C)(C)[C@@H]3CC[C@]12C (some centres unmarked) [Balansin A] | intensely sweet, also as slightly bitter and displayed a sweetener-type note | 2 | 48% (p < 0.00005) | 7.2 ± 1.4 | – | –
2 | CC(C)(O)C(O)C/C=C(\CO)[C@H]1CC[C@]2(C)[C@@H]1CC[C@@H]1[C@@]3(C)CC[C@H](O[C@@H]4O[C@H](COC5OC(CO)[C@@H](O)[C@H](O)[C@H]5O)[C@@H](O)[C@H](O)[C@H]4OC4O[C@H](CO)[C@@H](O)[C@H](O)[C@H]4O)C(C)(C)[C@@H]3CC[C@]12C (some centres unmarked) [Balansin B] | slightly bitter, slightly sweetener-type and weakly ethanolic, but otherwise displayed no noticeable intrinsic taste | 1 | – | – | 31% (p < 0.0005) | 6.7 ± 1.1

— patent US9642381B2, “Orally consumable formulations comprising certain sweet-tasting triterpenes and triterpene glycosides” (Symrise AG, priority 2011, dated 2017)
